# From patent US20150018369A1 (priority 2012, published 2015)
# Where two headings read alike, the source gives them in different places.
# Columns and labels:
# T98 g cells = assay: Cell viability assay (WST-1), SAR of AI compounds at inducing cell death; assay type: cell-based, human
# Description: (§1) Cells were plated media supplemented with 10% serum in 96-well plates (10^4 cells per wellI; 0.1 ml per well). Once they reached ˜70% confluence, they were rinsed with PBS and kept for an additional 24 his in media supplemented with 1% serum, at which time drugs or vehicle (DMSO, 0.1%, prepared in 10 μl serum-free media) were directly added to each well. After 3 days, cell viability was assessed using the Cell Proliferation Reagent WST-1 (Roche, Indianapolis, Ind.). Briefly, WST-1 reagent (10 μl) was added to each well for 3 hrs at 37° C. with 5% CO2 and WST-1 products were read at 450 nm using Packard SpectraCount™.
# Because the strongest toxic effect of WIN55212-2 (ST-1) was measured in T98 g cells, these cells are used as readout to study the structure activity relationship (SAR) of AI compounds at inducing cell death. Table 2 provides the chemical structure, potency and efficacy of several AI compounds.
# AI receptors = assay: GTPγS binding in HEK293 cell homogenates; assay type: biochemical, human
# From the text: When comparing the overall amino acid sequence of GPR124 to that of CB1 and CB2 receptors no significant homology was found. However, when focusing the comparison to the amino acid sequence encoding for the third transmembrane domains of GPR124 and CB2 receptors, 84% homology was found (FIG. 5a). […] Therefore, it is likely that ST-1, ST-11, and other AI compounds interact directly with the third transmembrane domain of GPR124. To determine the signaling mechanism of AI receptors, effect of ST-11 in HEX293 cells, which express GPR124 endogenously and commonly used to study GPCR pharmacology and signaling pathway, was tested.
# CB2 = CB2 (Homo sapiens, UniProt P34972); assay: HA-tagged receptor internalization, CB2; assay type: cell-based; design: HA; expressed in transfected cells; conditions: FIG. 2b
# Sequence of CB2 (P34972 whole entry): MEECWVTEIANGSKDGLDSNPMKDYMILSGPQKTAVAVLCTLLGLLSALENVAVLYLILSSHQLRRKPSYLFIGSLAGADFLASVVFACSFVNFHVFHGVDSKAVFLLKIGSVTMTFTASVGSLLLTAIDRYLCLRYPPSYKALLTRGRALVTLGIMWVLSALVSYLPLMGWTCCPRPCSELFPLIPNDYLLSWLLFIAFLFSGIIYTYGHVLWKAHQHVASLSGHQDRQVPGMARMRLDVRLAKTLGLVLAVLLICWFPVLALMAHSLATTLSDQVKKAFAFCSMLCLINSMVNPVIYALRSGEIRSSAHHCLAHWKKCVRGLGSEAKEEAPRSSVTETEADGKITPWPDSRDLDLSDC
# From the text: (§2) FIGS. 2d and 2e illustrate the co-docking of CP55940 and either WIN55212-2 (d) or ST-11 (e) in hCB1 receptors.
# [1] = system: T98 g, MDA231 and sknmc cells; assay: Killing of cell lines lacking CB1/CB2 (sensitivity profile); assay type: cell-based, human; conditions: for potencies and efficacies at killing these cells: T98 g, MDA231 and sknmc cells
# Description: as §1
# Based on this evidence, it was determined if WIN55212-2 differentially kills T98 g, MDA231 and […] cells, thus providing an index of AI receptor functionality in these cells. Also tested is Δ^9-THC (classic cannabinoid) and CP55940 (non-classical cannabinoid).
# [2] = system: protein expressed by NG108-15 cells; conditions: cited from earlier work
# human CB1 receptors = target: T1, human CB1 receptors (Homo sapiens, UniProt P21554); assay: HA-tagged receptor internalization, CB1; assay type: cell-based; conditions: FIG. 2a
# T1 construct: HA; expressed in transfected cells
# T1 sequence (P21554 whole entry): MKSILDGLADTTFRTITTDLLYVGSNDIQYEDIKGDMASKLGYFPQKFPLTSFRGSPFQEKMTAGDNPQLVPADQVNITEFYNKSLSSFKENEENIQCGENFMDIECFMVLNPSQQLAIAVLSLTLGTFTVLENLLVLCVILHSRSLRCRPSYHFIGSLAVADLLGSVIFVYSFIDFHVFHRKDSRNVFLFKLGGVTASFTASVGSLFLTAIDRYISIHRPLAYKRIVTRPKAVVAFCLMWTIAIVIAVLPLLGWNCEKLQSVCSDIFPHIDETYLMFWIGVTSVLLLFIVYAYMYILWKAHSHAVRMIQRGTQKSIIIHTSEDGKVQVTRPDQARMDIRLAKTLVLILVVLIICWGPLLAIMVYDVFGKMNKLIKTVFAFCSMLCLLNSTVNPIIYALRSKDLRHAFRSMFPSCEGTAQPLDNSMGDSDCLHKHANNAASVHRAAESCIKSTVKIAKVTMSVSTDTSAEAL
# From the text: as §2
# [3] = system: homogenates from CB1-/- mice cerebellum; conditions: insensitive to SR144528; cited from earlier work
# [4] = system: hippocampal slices from CB1-/- mice; conditions: blocked by capsazepine; cited from earlier work
# [5] = Homo sapiens, T98G, 72 h, T98 g cells, cell death, viability after 3 days, read-out: EC50
# [6] = T98 g cells, cell death, viability after 3 days
compound,measurement,setting,value
"CCn1c2ccccc2c2cc(C(=O)c3ccc(C)cc3)ccc21 [ST-63, (9-ethyl-carbazol-3-yl)(p-methylphenyl)methanone]",EC50,T98 g cells; [5],0.715 µM
CCCn1c(C)c(C(=O)c2ccc(C)c3ccccc23)c2ccccc21 [ST-18],EC50,"T98 g cells; Homo sapiens, T98G, 72 h",1.9 µM
CC(=O)c1c(C)n(CCCOc2ccccc2)c2ccccc12 [ST-44],EC50,"T98 g cells; Homo sapiens, T98G, 72 h",> 20 µM
COc1ccc2c3cc(C(=O)N4CCCCC4)ccc3n(CC3CCCCC3)c2c1 [ST-36],EC50,"T98 g cells; Homo sapiens, T98G, 72 h",3.7 µM
CCOC(=O)N1CCc2c(c3cc(C(=O)c4ccc(C)c5ccccc45)ccc3n2CC)C1,EC50,"T98 g cells; Homo sapiens, T98G, 72 h",6 µM
COc1ccc2c(c1)c(C(=O)c1ccc(C)c3ccccc13)c(C)n2CCN1CCOCC1 [ST-21],EC50,"T98 g cells; Homo sapiens, T98G, 72 h",29 µM
"CCn1c2ccccc2c2cc(C(=O)N3CCN(C)CC3)ccc21 [ST-62, (9-ethyl-carbazol-3-yl)(N-methylpiperazine)methanone]",EC50 (μM),T98 g cells; [6],inactive
CCCCCn1c2c(c3ccc(OC)cc31)CN(C(=O)c1ccccc1)CC2 [ST-35],EC50,T98 g cells; [5],~30 µM
"CCn1c2ccccc2c2cc(C(=O)c3ccc(C)c4ccccc34)ccc21 [ST-34, (9-ethyl-9H-carbazol-3-yl)(4-methylnaphthalen-1-yl)methanone]",EC50,"T98 g cells; Homo sapiens, T98G, 72 h",0.077 µM
CC(=O)c1c(C)n(CCOc2ccccc2)c2ccccc12 [ST-2],EC50,"T98 g cells; Homo sapiens, T98G, 72 h",21 µM
CCn1c(C)c(C(=O)c2cccc3ccccc23)c2ccccc21 [ST-13],EC50,"T98 g cells; Homo sapiens, T98G, 72 h",7.9 µM
CC(=O)c1c(C)n(CCOc2cccc3ccccc23)c2ccccc12 [ST-45],EC50,"T98 g cells; Homo sapiens, T98G, 72 h",30 µM
Cc1ccc(C(=O)c2c(C)n(C)c3ccccc23)c2ccccc12 [ST-10],EC50,"T98 g cells; Homo sapiens, T98G, 72 h",2.9 µM
Cc1nccn1CC1CCc2c(c3ccccc3n2C)C1=O (stereo not shown) [ST-3],EC50 (μM),T98 g cells; [6],inactive
CCN1C(=O)/C(=N\NC(=O)c2cccc3ccccc23)c2ccccc21 [ST-37],EC50,"T98 g cells; Homo sapiens, T98G, 72 h",5.6 µM
Cc1ccc(C(=O)n2c3ccccc3c3ccccc32)c2ccccc12 [ST-64],EC50,T98 g cells; [5],1.87 µM
Cc1ccc(C(=O)c2c(C(F)(F)F)n(CCN3CCOCC3)c3ccccc23)c2ccccc12 [ST-28],EC50,"T98 g cells; Homo sapiens, T98G, 72 h",2.7 µM
Cc1ccc(C(=O)c2c(C)n(CCN3CCOCC3)c3ccc(Cl)cc23)c2ccccc12 [ST-22],EC50,"T98 g cells; Homo sapiens, T98G, 72 h",5.4 µM
COc1ccc(C(=O)c2c(C)n(CCN3CCOCC3)c3cc(C)ccc23)cc1 [ST-19],EC50,"T98 g cells; Homo sapiens, T98G, 72 h",7.4 µM
COc1ccc2c(c1)c(C(O)N1CCCC(c3nnc4ccccn34)C1)c(C)n2C (stereo not shown) [ST-42],EC50 (μM),T98 g cells; [6],inactive
CCCn1c(C)c(C(=O)c2cccc3ccccc23)c2ccccc21 [ST-15],EC50,"T98 g cells; Homo sapiens, T98G, 72 h",1.5 µM
Cc1ccc(C(=O)c2c(C)n(CC(F)(F)F)c3ccccc23)c2ccccc12 [ST-29],EC50,"T98 g cells; Homo sapiens, T98G, 72 h",1 µM
same,GTPγS binding,AI receptors,increase GTP[…]S binding
same,cross-activation of human CB2 receptors (receptor internalization),CB2,engage CB2 receptors
COc1ccc2c(C(=O)c3ccc(C)c4ccccc34)c(C)n(CCN3CCOCC3)c2c1 [ST-26],EC50,"T98 g cells; Homo sapiens, T98G, 72 h",2.5 µM
COCCn1c(C)c(C(=O)N2CCC3(CC2)NC(=O)N(C)C3=O)c2ccccc21 [ST-8],EC50,"T98 g cells; Homo sapiens, T98G, 72 h",29 µM
"CCCn1c2ccccc2c2cc(C(=O)c3ccc(C)c4ccccc34)ccc21 [ST-58, (9-propyl-carbazol-3-yl)(4-methyl-naphthyl)methanone]",EC50 (μM),T98 g cells; [6],inactive
CCCCCn1cc(C(=O)c2cccc3ccccc23)cc1-c1cc(C)cc(O)c1 [ST-16],EC50 (μM),T98 g cells; [6],inactive
CCn1c(C)c(C(=O)c2ccc(OC)cc2)c2ccccc21 [ST-47],EC50,"T98 g cells; Homo sapiens, T98G, 72 h",~20 µM
COCCn1cc(C(=O)N2CCCC(CN(C)C)C2)c2ccccc21 (stereo not shown) [ST-9],EC50 (μM),T98 g cells; [6],inactive
O=C(c1cccc2ccccc12)c1cn(CCN2CCOCC2)c2ccccc12 [ST-20],EC50,"T98 g cells; Homo sapiens, T98G, 72 h",23 µM
"5-ethyl-7-methoxy-2-[(4-methylnaphthalen-1-yl)carbonyl]-1H,2H,3H,4H,5H-pyrido[4,3-b]indole [ST-33]",EC50,"T98 g cells; T98 g cells, cell death, viability after 3 days, read-out: EC50",1.4 µM
"CCn1c2ccccc2c2cc(C(=O)N3CCCc4ccccc43)ccc21 [ST-53, (9-ethyl-carbazol-3-yl)(1,2,3,4-tetrahydraquinoline)methanone]",EC50,T98 g cells; [5],0.516 µM
Cc1ccc(C(=O)c2c(C)n(C3CC3)c3ccccc23)c2ccccc12 [ST-30],EC50,"T98 g cells; Homo sapiens, T98G, 72 h",1 µM
CC1=C(CCN2C(=O)COc3ccccc32)c2ccccc2C1C (stereo not shown) [ST-4],EC50 (μM),T98 g cells; [6],inactive
CCCn1cc(C(=O)c2ccc(C)c3ccccc23)c2ccccc21 [ST-14],EC50 (μM),T98 g cells; [6],inactive
Cc1ccc(C(=O)c2c(C)n(CCN3CCOCC3)c3cc(Cl)cc(Cl)c23)c2ccccc12 [ST-27],EC50,"T98 g cells; Homo sapiens, T98G, 72 h",0.409 µM
Cc1ccc(C(=O)c2c(C)n(CCN3CCOCC3)c3cc(Cl)ccc23)c2ccccc12 [ST-24],EC50,"T98 g cells; Homo sapiens, T98G, 72 h",1.4 µM
"CCCCCCC(C)(C)c1ccc([C@@H]2C[C@H](O)CC[C@H]2CCCO)c(O)c1 [CP55940, CP55,940]",potencies and efficacies at killing these cells,[1],inconsistent potencies and efficacies
same,competition for WIN-2 binding,[2],did not compete
Cc1ccc(C(=O)c2c(C)n(CCN3CCOCC3)c3ccccc23)c2ccccc12 [ST-48],EC50,"T98 g cells; Homo sapiens, T98G, 72 h",6.7 µM
same,cross-activation of human CB1 receptors (receptor internalization),human CB1 receptors,engage CB1 receptors
same,cross-activation of human CB2 receptors (receptor internalization),CB2,engage CB2 receptors
Cc1c(C(=O)C(F)(F)F)c2ccccc2n1CC(=O)NCc1ccccc1 [ST-6],EC50 (μM),T98 g cells; [6],inactive
"Cc1c(C(=O)c2cccc3ccccc23)c2cccc3c2n1[C@@H](CN1CCOCC1)CO3 [ST-1, WIN55212-2]",EC50,"T98 g cells; Homo sapiens, T98G, 72 h",2.1 µM
same,EC50,"[1]; Homo sapiens, range over the three cell lines (FIG. 1), read-out: potency at killing T98 g, MDA231 and sknmc cells",1.5 to 2.9 µM
same,toxic efficacy,[1]; rank order of cell lines,T98 g>MDA>sknmc
same,binding affinity,[2],nanomolar affinity
same,[35S]-GTPγS binding,[3],increase [^35S]-GTPγS binding
same,excitatory transmission,[4],inhibit excitatory transmission
O=C1CCCc2c1c1ccccc1n2Cc1ccccc1 [ST-7],EC50 (μM),T98 g cells; [6],inactive
O=C(c1ccccc1)c1cn(CC(=O)N2CCOCC2)c2ccccc12 [ST-46],EC50 (μM),T98 g cells; [6],inactive
CCn1c2c(c3ccccc31)CN(S(=O)(=O)c1ccc(Cl)c3nonc13)CC2 [ST-59],EC50 (μM),T98 g cells; [6],inactive
Cc1ccc(C(=O)c2c(C)n(CCN3CCOCC3)c3ncccc23)c2ccccc12 [ST-23],EC50,"T98 g cells; Homo sapiens, T98G, 72 h",3.5 µM
same,cross-activation of human CB1 receptors (receptor internalization),human CB1 receptors,engage CB1 receptors
same,GTPγS binding,AI receptors,increase GTP[…]S binding
Cc1ccc(C(=O)c2c3n(c4ccccc24)CCCC3)c2ccccc12 [ST-25],EC50,"T98 g cells; Homo sapiens, T98G, 72 h",0.634 µM
same,GTPγS binding,AI receptors,increase GTP[…]S binding
Cc1c(CNN2CCOCC2)nn(C)c1C [ST-49],EC50 (μM),T98 g cells; [6],inactive
COc1ccc(C(=O)c2c(C)n(CCN3CCOCC3)c3ccccc23)cc1 [ST-17],EC50,"T98 g cells; Homo sapiens, T98G, 72 h",24 µM
Cc1ccc(C(=O)c2c(C)n(CCN3CCOCC3)c3cnccc23)c2ccccc12 [ST-31],EC50,"T98 g cells; Homo sapiens, T98G, 72 h",20 µM
CCCCCn1c2ccccc2c2cc(C(=O)N3CCCCC3)ccc21 [ST-32],EC50,"T98 g cells; Homo sapiens, T98G, 72 h",6.2 µM
COc1ccc2c(c1)c(C(=O)N1CCCC(c3nnc4ccccn34)C1)c(C)n2C (stereo not shown) [ST-41],EC50 (μM),T98 g cells; [6],inactive
Cn1cc(C(=O)N2CCCc3ccccc32)c2ccccc21 [ST-40],EC50 (μM),T98 g cells; [6],inactive
Cc1c(C(=O)Cn2cnc3ccccc3c2=O)c2ccccc2n1C [ST-5],EC50 (μM),T98 g cells; [6],inactive
"CCCCCc1cc(O)c2c(c1)OC(C)(C)[C@@H]1CCC(C)=C[C@@H]21 [THC, Δ^9-THC]",potencies and efficacies at killing these cells,[1],inconsistent potencies and efficacies
Cc1c(C(=O)c2cccc3ccccc23)c2ccccc2n1C [ST-12],EC50,"T98 g cells; Homo sapiens, T98G, 72 h",3.1 µM
